Source: the NIST ThermoML archive (doi:10.1016/j.jct.2017.06.002)
± gives the expanded uncertainty stated by the source.

Assay: xn = mol fraction of the nth substance listed
Details: 100 kPa, Liquid; for viscosity: Concentric cylinders viscometry; for mass density: Vibrating tube method

COCOCOCOCOC [2,4,6,8,10-pentaoxaundecane] + COCOCOC
viscosity (288.15 K, x2 = 0): 2.207 ± 0.051 mPa·s
viscosity (288.15 K, x2 = 0.12): 1.99 ± 0.062 mPa·s
viscosity (288.15 K, x2 = 0.24): 1.788 ± 0.061 mPa·s
viscosity (288.15 K, x2 = 0.35): 1.608 ± 0.06 mPa·s
viscosity (288.15 K, x2 = 0.45): 1.449 ± 0.058 mPa·s
viscosity (288.15 K, x2 = 0.55): 1.318 ± 0.056 mPa·s
viscosity (288.15 K, x2 = 0.65): 1.209 ± 0.055 mPa·s
viscosity (288.15 K, x2 = 0.74): 1.119 ± 0.054 mPa·s
viscosity (288.15 K, x2 = 0.83): 1.043 ± 0.053 mPa·s
viscosity (288.15 K, x2 = 0.92): 0.977 ± 0.052 mPa·s
mass density (288.15 K, x2 = 0): 1078.8 ± 2 kg/m3
mass density (288.15 K, x2 = 0.12): 1069.8 ± 2.5 kg/m3
mass density (288.15 K, x2 = 0.24): 1061.6 ± 2.5 kg/m3
mass density (288.15 K, x2 = 0.35): 1053.5 ± 2.5 kg/m3
mass density (288.15 K, x2 = 0.45): 1045.4 ± 2.6 kg/m3
mass density (288.15 K, x2 = 0.55): 1037.2 ± 2.6 kg/m3
mass density (288.15 K, x2 = 0.65): 1029 ± 2.6 kg/m3
mass density (288.15 K, x2 = 0.74): 1021 ± 2.7 kg/m3
mass density (288.15 K, x2 = 0.83): 1013.2 ± 2.6 kg/m3
mass density (288.15 K, x2 = 0.92): 1005.8 ± 2.6 kg/m3
viscosity (293.15 K, x2 = 0): 2.015 ± 0.051 mPa·s
viscosity (293.15 K, x2 = 0.12): 1.835 ± 0.058 mPa·s
viscosity (293.15 K, x2 = 0.24): 1.669 ± 0.058 mPa·s
viscosity (293.15 K, x2 = 0.35): 1.518 ± 0.058 mPa·s
viscosity (293.15 K, x2 = 0.45): 1.378 ± 0.057 mPa·s
viscosity (293.15 K, x2 = 0.55): 1.265 ± 0.055 mPa·s
viscosity (293.15 K, x2 = 0.65): 1.166 ± 0.054 mPa·s
viscosity (293.15 K, x2 = 0.74): 1.082 ± 0.053 mPa·s
viscosity (293.15 K, x2 = 0.83): 1.019 ± 0.052 mPa·s
viscosity (293.15 K, x2 = 0.92): 0.962 ± 0.052 mPa·s
mass density (293.15 K, x2 = 0): 1073.3 ± 2 kg/m3
mass density (293.15 K, x2 = 0.12): 1064.6 ± 2.4 kg/m3
mass density (293.15 K, x2 = 0.24): 1056.5 ± 2.4 kg/m3
mass density (293.15 K, x2 = 0.35): 1048.6 ± 2.5 kg/m3
mass density (293.15 K, x2 = 0.45): 1040.6 ± 2.6 kg/m3
mass density (293.15 K, x2 = 0.55): 1032.6 ± 2.6 kg/m3
mass density (293.15 K, x2 = 0.65): 1024.6 ± 2.6 kg/m3
mass density (293.15 K, x2 = 0.74): 1016.7 ± 2.6 kg/m3
mass density (293.15 K, x2 = 0.83): 1009 ± 2.6 kg/m3
mass density (293.15 K, x2 = 0.92): 1001.8 ± 2.6 kg/m3
viscosity (298.15 K, x2 = 0): 1.848 ± 0.051 mPa·s
viscosity (298.15 K, x2 = 0.12): 1.697 ± 0.056 mPa·s
viscosity (298.15 K, x2 = 0.24): 1.557 ± 0.056 mPa·s
viscosity (298.15 K, x2 = 0.35): 1.43 ± 0.056 mPa·s
viscosity (298.15 K, x2 = 0.45): 1.315 ± 0.055 mPa·s
viscosity (298.15 K, x2 = 0.55): 1.212 ± 0.054 mPa·s
viscosity (298.15 K, x2 = 0.65): 1.125 ± 0.053 mPa·s
viscosity (298.15 K, x2 = 0.74): 1.05 ± 0.053 mPa·s
viscosity (298.15 K, x2 = 0.83): 0.9918 ± 0.052 mPa·s
viscosity (298.15 K, x2 = 0.92): 0.943 ± 0.051 mPa·s
mass density (298.15 K, x2 = 0): 1068.2 ± 2 kg/m3
mass density (298.15 K, x2 = 0.12): 1059.7 ± 2.4 kg/m3
mass density (298.15 K, x2 = 0.24): 1051.9 ± 2.4 kg/m3
mass density (298.15 K, x2 = 0.35): 1043.9 ± 2.5 kg/m3
mass density (298.15 K, x2 = 0.45): 1036 ± 2.6 kg/m3
mass density (298.15 K, x2 = 0.55): 1028 ± 2.6 kg/m3
mass density (298.15 K, x2 = 0.65): 1020.1 ± 2.6 kg/m3
mass density (298.15 K, x2 = 0.74): 1012.1 ± 2.7 kg/m3
mass density (298.15 K, x2 = 0.83): 1004.4 ± 2.6 kg/m3
mass density (298.15 K, x2 = 0.92): 996.8 ± 2.6 kg/m3
viscosity (303.15 K, x2 = 0): 1.703 ± 0.051 mPa·s
viscosity (303.15 K, x2 = 0.12): 1.575 ± 0.055 mPa·s
viscosity (303.15 K, x2 = 0.24): 1.452 ± 0.055 mPa·s
viscosity (303.15 K, x2 = 0.35): 1.344 ± 0.054 mPa·s
viscosity (303.15 K, x2 = 0.45): 1.243 ± 0.054 mPa·s
viscosity (303.15 K, x2 = 0.55): 1.153 ± 0.053 mPa·s
viscosity (303.15 K, x2 = 0.65): 1.079 ± 0.053 mPa·s
viscosity (303.15 K, x2 = 0.74): 1.017 ± 0.052 mPa·s
viscosity (303.15 K, x2 = 0.83): 0.97 ± 0.051 mPa·s
viscosity (303.15 K, x2 = 0.92): 0.9255 ± 0.051 mPa·s
mass density (303.15 K, x2 = 0): 1063.4 ± 2 kg/m3
mass density (303.15 K, x2 = 0.12): 1055.2 ± 2.4 kg/m3
mass density (303.15 K, x2 = 0.24): 1047.3 ± 2.4 kg/m3
mass density (303.15 K, x2 = 0.35): 1039.4 ± 2.5 kg/m3
mass density (303.15 K, x2 = 0.45): 1031.5 ± 2.6 kg/m3
mass density (303.15 K, x2 = 0.55): 1023.5 ± 2.6 kg/m3
mass density (303.15 K, x2 = 0.65): 1015.4 ± 2.6 kg/m3
mass density (303.15 K, x2 = 0.74): 1007.4 ± 2.7 kg/m3
mass density (303.15 K, x2 = 0.83): 999.4 ± 2.7 kg/m3
mass density (303.15 K, x2 = 0.92): 991.7 ± 2.7 kg/m3
viscosity (308.15 K, x2 = 0): 1.576 ± 0.051 mPa·s
viscosity (308.15 K, x2 = 0.12): 1.466 ± 0.054 mPa·s
viscosity (308.15 K, x2 = 0.24): 1.361 ± 0.054 mPa·s
viscosity (308.15 K, x2 = 0.35): 1.264 ± 0.054 mPa·s
viscosity (308.15 K, x2 = 0.45): 1.175 ± 0.053 mPa·s
viscosity (308.15 K, x2 = 0.55): 1.099 ± 0.052 mPa·s
viscosity (308.15 K, x2 = 0.65): 1.036 ± 0.052 mPa·s
viscosity (308.15 K, x2 = 0.74): 0.9843 ± 0.051 mPa·s
viscosity (308.15 K, x2 = 0.83): 0.943 ± 0.051 mPa·s
viscosity (308.15 K, x2 = 0.92): 0.9043 ± 0.051 mPa·s
mass density (308.15 K, x2 = 0): 1059.1 ± 2 kg/m3
mass density (308.15 K, x2 = 0.12): 1050.9 ± 2.4 kg/m3
mass density (308.15 K, x2 = 0.24): 1043 ± 2.4 kg/m3
mass density (308.15 K, x2 = 0.35): 1035 ± 2.5 kg/m3
mass density (308.15 K, x2 = 0.45): 1027.2 ± 2.6 kg/m3
mass density (308.15 K, x2 = 0.55): 1019.2 ± 2.6 kg/m3
mass density (308.15 K, x2 = 0.65): 1011.3 ± 2.6 kg/m3
mass density (308.15 K, x2 = 0.74): 1003.2 ± 2.7 kg/m3
mass density (308.15 K, x2 = 0.83): 995 ± 2.7 kg/m3
mass density (308.15 K, x2 = 0.92): 986.9 ± 2.8 kg/m3
viscosity (313.15 K, x2 = 0): 1.464 ± 0.051 mPa·s
viscosity (313.15 K, x2 = 0.12): 1.371 ± 0.053 mPa·s
viscosity (313.15 K, x2 = 0.24): 1.278 ± 0.053 mPa·s
viscosity (313.15 K, x2 = 0.35): 1.194 ± 0.053 mPa·s
viscosity (313.15 K, x2 = 0.45): 1.117 ± 0.053 mPa·s
viscosity (313.15 K, x2 = 0.55): 1.05 ± 0.052 mPa·s
viscosity (313.15 K, x2 = 0.65): 0.9955 ± 0.051 mPa·s
viscosity (313.15 K, x2 = 0.74): 0.9504 ± 0.051 mPa·s
viscosity (313.15 K, x2 = 0.83): 0.916 ± 0.051 mPa·s
viscosity (313.15 K, x2 = 0.92): 0.8847 ± 0.051 mPa·s
mass density (313.15 K, x2 = 0): 1055.2 ± 2 kg/m3
mass density (313.15 K, x2 = 0.12): 1047.2 ± 2.4 kg/m3
mass density (313.15 K, x2 = 0.24): 1039.4 ± 2.4 kg/m3
mass density (313.15 K, x2 = 0.35): 1031.5 ± 2.5 kg/m3
mass density (313.15 K, x2 = 0.45): 1023.7 ± 2.5 kg/m3
mass density (313.15 K, x2 = 0.55): 1015.8 ± 2.6 kg/m3
mass density (313.15 K, x2 = 0.65): 1007.9 ± 2.6 kg/m3
mass density (313.15 K, x2 = 0.74): 999.8 ± 2.7 kg/m3
mass density (313.15 K, x2 = 0.83): 991.3 ± 2.8 kg/m3
mass density (313.15 K, x2 = 0.92): 982.8 ± 2.8 kg/m3
